Reference: patent US20080255217A1, “PREVENTIVE OR THERAPEUTIC AGENT FOR CARDIAC DYSFUNCTION OR MYOCARDIAL INJURY CAUSED BY ISCHEMIA OR ISCHEMIA REPERFUSION” (SANWA KAGAKU KENKYUSHO CO., LTD., priority 2005, published 2008)

Experiments:
[1] = test system: hearts of human aldose reductase (AR) transgenic mice (hAR-TG); assay: Isolated heart (Langendorff) ischemia-reperfusion, hAR-TG mice; design: species or system mouse; conditions: for increase in LVEDP: FIG. 5; for reduction in +dP/dt max: FIG. 6; for release of CK into a perfusion solution: FIG. 7; for decrease in a myocardial ATP content: after 60 minutes reperfusion, FIG. 8
Description: In the present invention, not only wild-type mice, but also human aldose reductase (AR) transgenic mice (hAR-TG) which was produced so as to overexpress human-type AR genetically in a mouse, were used for predicting effectiveness in humans which is significant for the development of such a therapeutic agent. As a control for comparison with SNK-860, epalrestat and zopolrestat were used.
(§1) In an experimental test, hearts of 7 to 9 week-old wild-type mice (BDF-1) and hAR-TG were used. From these mice, hearts were isolated under anesthesia of pentobarbital 50 mg/kg i.p., and were placed in ice-cold saline. The isolated hearts were perfused for 20 minutes at a perfusion pressure of 70 mmHg with the Langendorff apparatus (Model IH-1 Type 844, HUGO SACHS ELEKTRONIK, Germany), and was stabilized. Thereafter, after perfusion for 30 minutes under heart function measurement, perfusion solution was completely stopped for 30 minutes, and reperfusion was performed for further 60 minutes, thereby, ischemia-ischemia reperfusion loading was performed. As perfusion solution, Krebs-Henseleit (KH) buffer containing 5.55 mM glucose and 2 mM Na-pyruvate was used. Cardiac performance was assessed by a left ventricular end-diastolic pressure (LVEDP) and peak first derivative of left ventricular systolic pressure (+dP/dt max). These were measured with a pressure transducer connected with a balloon inserted into a left ventricle in condition of hearts paced at 3 volt, 420 beats/min with an electrode placed on the top of a right ventricle, and data thereof were calculated with a four cannel recording device (OMUNIACE RT-3300, NEC, Japan). An AR inhibitor was added to the perfusion solution for 10 minutes from 15 minutes before global ischemia initiation as shown in FIG. 1. Each inhibitor (1 μM SNK-860: SNK, 1-10 μM zopolrestat: ZOP, 10 μM epalrestat: EPA) was dissolved in DMSO, and a DMSO final concentration in a perfusion solution was adjusted to 0.05%. DMSO of the same concentration was also added to a perfusion solution of a control experiment. Cardiomyocytes injury was determined using as an index the release of total creatinine kinase (CK) for 60-min reperfusion, and a myocardial ATP content after 60 minutes reperfusion was determined by the bioluminescence method (Sigma-Aldrich, St. Louis, Mo.) using luciferase, respectively.
For hAR-TG mice, littermates (LM: hAR non-expression litter mouse) were used as control mice without drug treatment.

[2] = test system: hearts of wild-type mice (BDF-1); assay: Isolated heart (Langendorff) ischemia-reperfusion, wild-type mice; design: species or system mouse; conditions: for deterioration of the cardiac performance and destruction of cardiac muscle due to an ischemia reperfusion injury in a heart: discussion summary of wild-type and hAR-TG results; for increase of left ventricular end-diastolic pressure (LVEDP) after ischemia reperfusion: 1 μM in perfusion solution, FIG. 2; for release of CK from cardiomyocytes: 60-min reperfusion, FIG. 4
Protocol: as §1

[3] = target: aldose reductase (Homo sapiens, UniProt P15121); assay: Aldose reductase inhibitory activity; format: biochemical; conditions: background statement
[4] = test system: diabetic cardiomyopathy patients; conditions: Johnson B F: Diabetes Care 27,448, 2004; cited from earlier work
[5] = drug development ceased; cited from earlier work
[6] = wild-type mice, isolated heart, 1 μM

| increase in LVEDP ([1]; 1 μM) | reduction in +dP/dt max ([1]; 1 μM) | increase in LVEDP ([1]; 10 μM) | reduction in +dP/dt max ([1]; 10 μM) | release of CK into a perfusion solution ([1]; 10 μM) | decrease in a myocardial ATP content ([1]; 10 μM) | Compound | release of CK into a perfusion solution ([1]; 1 μM) | decrease in a myocardial ATP content ([1]; 1 μM) | deterioration of the cardiac performance and destruction of cardiac muscle due to an ischemia reperfusion injury in a heart ([2]; lower concentration, non-diabetic state) | increase of left ventricular end-diastolic pressure (LVEDP) after ischemia reperfusion ([2]; wild-type mice, isolated heart) | reduction in peak first derivative of left ventricular systolic pressure (+dP/dt max) immediately after reperfusion ([2]; wild-type mice, isolated heart, 1 μM, FIG. 3) | release of CK from cardiomyocytes [2, 6] | aldose reductase inhibitory activity [3] | deterioration of the cardiac performance and destruction of cardiac muscle due to an ischemia reperfusion injury in a heart ([2]; high concentration) | cardiac performance of diabetic cardiomyopathy patients [4] | manifestation of side effects [5] |
| --- | --- | --- | --- | --- | --- | --- | --- | --- | --- | --- | --- | --- | --- | --- | --- | --- |
| significant improvement | significant improvement |  |  |  |  | NC(=O)[C@@H]1C[C@]2(NC(=O)NC2=O)c2cc(F)ccc2O1 [SNK-860, (2S,4S)-6-fluoro-2′,5′-dioxospiro[chroman-4,4′-imidazolidine]-2-carboxamide] | equivalent improvement effect to that of the 10 μM epalrestat-addition group | equivalent improvement effect to that of the 10 μM epalrestat-addition group | completely inhibited | significantly improved | the most remarkable effect | significant reduction | strong aldose reductase inhibitory activity |  |  |  |
|  |  | significant improvement | significant improvement | significant improvement was not observed | significant improvement was not observed | O=C(O)Cc1nn(Cc2nc3cc(C(F)(F)F)ccc3s2)c(=O)c2ccccc12 [zopolrestat] |  |  |  | significantly improved |  | no effect |  | only the partial effect | improves the cardiac performance | hepatic disorders |
